Key:
[1] = tested on: aptananozyme III (amino-DBA with (TGTA) spacer (3) on Ce4+-ion-modified C-dots) (DNA, aptamer) TGTACGACGCCAGTTTGAAGGTTCGTTCGCAGGTGTGGAGTGACGTCG; experiment: ITC; conditions: 100 mM NaCl, 5 mM MgCl2; 5 mM MES pH 5.5; aptamer immobilised on Ce4+-C-dots; 20 µM aptananozyme, 600 µM dopamine titrant
[2] = tested on: aptananozyme V (amino-DBA with (TGTA)3 spacer (5) on Ce4+-ion-modified C-dots) (DNA, aptamer) TGTATGTATGTACGACGCCAGTTTGAAGGTTCGTTCGCAGGTGTGGAGTGACGTCG; experiment: ITC; conditions: 100 mM NaCl, 5 mM MgCl2; 5 mM MES pH 5.5; aptamer immobilised on Ce4+-C-dots; 20 µM aptananozyme, 600 µM dopamine titrant
[3] = tested on: DBA (free dopamine binding aptamer) (DNA, aptamer) CGACGCCAGTTTGAAGGTTCGTTCGCAGGTGTGGAGTGACGTCG; conditions: conditions not stated
[4] = tested on: aptananozyme IV (amino-DBA with (TGTA)2 spacer (4) on Ce4+-ion-modified C-dots) (DNA, aptamer) TGTATGTACGACGCCAGTTTGAAGGTTCGTTCGCAGGTGTGGAGTGACGTCG; experiment: ITC; conditions: 100 mM NaCl, 5 mM MgCl2; 5 mM MES pH 5.5; aptamer immobilised on Ce4+-C-dots; 20 µM aptananozyme, 600 µM dopamine titrant

`NCCc1ccc(O)c(O)c1` showed a Kd [1] of 950 ± 30 nM, a Kd [2] of 910 ± 100 nM and a Kd [3] of 720 ± 30 nM. It also gave a Kd [4] of 880 ± 40 nM.

From paper PMC9782376 (2022)
